The values that follow are results of earlier work, collected in US20040024065A1, “Novel metabolic targets and markers” (priority 2002, published 2004).

For one data set, the system named is rat hepatocytes. As to conditions: rat hepatocytes incubated with inhibitor.
For a further data set, the system named is PEMT. As to conditions: alcohol consumption, before the development of cirrhosis.

SMILES strings stand for the structures.

As to `Nc1nccc2c1ncn2[C@@H]1O[C@H](CO)[C@@H](O)[C@H]1O` [3-deazaadenosine], in the data set with rat hepatocytes, the “PC synthesis via methylation of PE derived from ethanolamine, inhibited” value is given as “more than 95%”; the “amount of PE in the cells” value is “doubled”; the “amount of PE secreted into the medium, increase” value is 70%; the “secretion of the apoproteins into VLDL, LDL, HDL fractions or fraction with density greater than 1.18 g/ml” value is on record as “not affected”.
On to `CCO` [alcohol], for which, in the data set on PEMT, the “activity of PEMT” value is listed as “depresses”.
